ChEMBL document CHEMBL5625252, “Synthesis of peptidomimetics as antibiotic adjuvants for combination with aztreonam to combat MDR Pseudomonas aeruginosa” (Eur J Med Chem, 2023)
≈ marks a conversion by molar mass, not a printed value.

Key:
Format in all cases: functional
Escherichia coli [1] = assay: Antibacterial activity against ESBLs (+) Escherichia coli 16-1 assessed as inhibition of bacterial growth incubated for 18 hrs by agar dilution method
Escherichia coli [2] = assay: Antibacterial activity against ESBLs (-) Escherichia coli ATCC 25922 assessed as inhibition of bacterial growth incubated for 18 hrs by agar dilution method
Klebsiella pneumoniae [3] = assay: Antibacterial activity against ESBLs (+) Klebsiella pneumoniae 16-14 assessed as inhibition of bacterial growth incubated for 18 hrs by agar dilution method
Escherichia coli [4] = assay: Antibacterial activity against mcr-1 (+) Escherichia coli 08-85 assessed as inhibition of bacterial growth incubated for 18 hrs by agar dilution method
Pseudomonas aeruginosa [5] = assay: Antibacterial activity against Pseudomonas aeruginosa PAO1 assessed as inhibition of bacterial growth incubated for 18 hrs by agar dilution method
Escherichia coli [6] = assay: Antibacterial activity against NDM-1 (+) Escherichia coli CDC 1001728 assessed as inhibition of bacterial growth incubated for 18 hrs by agar dilution method
Klebsiella pneumoniae [7] = assay: Antibacterial activity against NDM-1 (+) Klebsiella pneumoniae 09-20 assessed as inhibition of bacterial growth incubated for 18 hrs by agar dilution method
Pseudomonas aeruginosa [8] = assay: Antibacterial activity against BL (+) Pseudomonas aeruginosa ATCC 27853 assessed as inhibition of bacterial growth incubated for 18 hrs by agar dilution method
Klebsiella pneumoniae [9] = assay: Antibacterial activity against ESBLs (+) Klebsiella pneumoniae ATCC 700603 assessed as inhibition of bacterial growth incubated for 18 hrs by agar dilution method
Klebsiella pneumoniae [10] = assay: Antibacterial activity against NDM-1 (+) Klebsiella pneumoniae 2146 assessed as inhibition of bacterial growth incubated for 18 hrs by agar dilution method
Pseudomonas aeruginosa [11] = assay: Synergistic antibacterial activity against Pseudomonas aeruginosa PAO1 assessed as aztreonam MIC upto […] ug/ml incubated for 18 hrs by checkerboard method (reference value: 8 microg/ml)

SMILES	MIC (Escherichia coli [1])	MIC (Escherichia coli [2])	MIC (Klebsiella pneumoniae [3])	MIC (Escherichia coli [4])	MIC (Pseudomonas aeruginosa [5])	MIC (Escherichia coli [6])	MIC (Klebsiella pneumoniae [7])	MIC (Pseudomonas aeruginosa [8])	MIC (Klebsiella pneumoniae [9])	MIC (Klebsiella pneumoniae [10])	MIC (Pseudomonas aeruginosa [11])
C[C@H]1[C@H](NC(=O)/C(=N\OCC(=O)N2CCCC(C(=O)O)C2)c2csc(N)n2)C(=O)N1S(=O)(=O)O (some centres undefined)	2 µg/mL (≈ 3.86 µM)	0.5 µg/mL (≈ 0.964 µM)	> 64 µg/mL	> 64 µg/mL	> 64 µg/mL	16 µg/mL (≈ 30.9 µM)	64 µg/mL (≈ 123 µM)	> 64 µg/mL	> 64 µg/mL	> 64 µg/mL	
C[C@H]1[C@H](NC(=O)/C(=N\OCC(=O)N2CCC[C@@H]2C(=O)O)c2csc(N)n2)C(=O)N1S(=O)(=O)O	0.12 µg/mL (≈ 0.238 µM)	0.12 µg/mL (≈ 0.238 µM)	16 µg/mL (≈ 31.7 µM)	> 64 µg/mL	32 µg/mL (≈ 63.4 µM)	8 µg/mL (≈ 15.9 µM)	2 µg/mL (≈ 3.96 µM)	> 64 µg/mL	> 64 µg/mL	> 64 µg/mL	
C=CCO/N=C(\C(=O)N[C@@H]1C(=O)N(S(=O)(=O)O)[C@H]1C)c1nsc(N)n1	16 µg/mL (≈ 41 µM)	8 µg/mL (≈ 20.5 µM)	> 64 µg/mL	> 64 µg/mL	64 µg/mL (≈ 164 µM)	64 µg/mL (≈ 164 µM)	> 64 µg/mL	> 64 µg/mL	> 64 µg/mL	> 64 µg/mL	
CC(C)[C@H](O/N=C(\C(=O)N[C@@H]1C(=O)N(OS(=O)(=O)O)C1(C)C)c1csc(N)n1)C(=O)O	0.125 µg/mL (≈ 0.261 µM)	0.25 µg/mL (≈ 0.521 µM)	0.125 µg/mL (≈ 0.261 µM)	0.25 µg/mL (≈ 0.521 µM)	4 µg/mL (≈ 8.34 µM)	0.5 µg/mL (≈ 1.04 µM)	0.25 µg/mL (≈ 0.521 µM)	8 µg/mL (≈ 16.7 µM)	2 µg/mL (≈ 4.17 µM)	1 µg/mL (≈ 2.09 µM)	
C[C@H]1[C@H](NC(=O)/C(=N\OCC(=O)N2CCC[C@@H]2C(=O)O)c2nsc(N)n2)C(=O)N1S(=O)(=O)O	1 µg/mL (≈ 1.98 µM)	1 µg/mL (≈ 1.98 µM)	> 64 µg/mL	> 64 µg/mL	> 64 µg/mL	8 µg/mL (≈ 15.8 µM)	16 µg/mL (≈ 31.7 µM)	> 64 µg/mL	> 64 µg/mL	> 64 µg/mL	
NCCC[C@H](NC(=O)CCc1ccc(Cl)cc1)C(=O)Nc1ccc2ccccc2c1											8 µg/mL
C[C@H]1[C@H](NC(=O)/C(=N\OC(C)(C)C(=O)N2CCC[C@@H]2C(=O)O)c2csc(N)n2)C(=O)N1S(=O)(=O)O	1 µg/mL (≈ 1.88 µM)	2 µg/mL (≈ 3.76 µM)	> 64 µg/mL	> 64 µg/mL	8 µg/mL (≈ 15 µM)	64 µg/mL (≈ 120 µM)	16 µg/mL (≈ 30 µM)	32 µg/mL (≈ 60.1 µM)	> 64 µg/mL	> 64 µg/mL	
C[C@H]1COc2c(N3CCN(C)CC3)c(F)cc3c(=O)c(C(=O)O)cn1c23 [LEVOFLOXACIN ANHYDROUS]		≤ 0.03 µg/mL		16 µg/mL (≈ 44.3 µM)		8 µg/mL (≈ 22.1 µM)	16 µg/mL (≈ 44.3 µM)			128 µg/mL (≈ 354 µM)	
COc1ccc(CCC(=O)N[C@@H](CCCN)C(=O)Nc2ccc3ccccc3c2)cc1											8 µg/mL
C[C@H]1[C@H](NC(=O)/C(=N\OCC(=O)N2C3CCCC3C[C@@H]2C(=O)O)c2csc(N)n2)C(=O)N1S(=O)(=O)O (some centres undefined)	1 µg/mL (≈ 1.84 µM)	1 µg/mL (≈ 1.84 µM)	64 µg/mL (≈ 118 µM)	> 64 µg/mL	> 64 µg/mL	16 µg/mL (≈ 29.4 µM)	8 µg/mL (≈ 14.7 µM)	> 64 µg/mL	> 64 µg/mL	> 64 µg/mL	
NCCC[C@H](NC(=O)Cc1ccc2ccccc2c1)C(=O)N[C@@H](Cc1ccccc1)C(=O)O											8 µg/mL
C#CCO/N=C(\C(=O)N[C@@H]1C(=O)N(S(=O)(=O)O)[C@H]1C)c1nsc(N)n1	16 µg/mL (≈ 41.2 µM)	8 µg/mL (≈ 20.6 µM)	> 64 µg/mL	> 64 µg/mL	16 µg/mL (≈ 41.2 µM)	32 µg/mL (≈ 82.4 µM)	> 64 µg/mL	64 µg/mL (≈ 165 µM)	> 64 µg/mL	> 64 µg/mL	
C[C@H]1[C@H](NC(=O)/C(=N\OCC(=O)N2CCC(C(=O)O)C2)c2csc(N)n2)C(=O)N1S(=O)(=O)O (some centres undefined)	2 µg/mL (≈ 3.96 µM)	1 µg/mL (≈ 1.98 µM)	> 64 µg/mL	> 64 µg/mL	> 64 µg/mL	16 µg/mL (≈ 31.7 µM)	32 µg/mL (≈ 63.4 µM)	> 64 µg/mL	> 64 µg/mL	> 64 µg/mL	
NCCC[C@H](NC(=O)CCc1ccc(F)cc1)C(=O)Nc1ccc2ccccc2c1											8 µg/mL
NCCC[C@H](NC(=O)CCc1ccc(C(F)(F)F)cc1)C(=O)Nc1ccc2ccccc2c1											8 µg/mL
C[C@H](O/N=C(\C(=O)N[C@@H]1C(=O)N(OS(=O)(=O)O)C1(C)C)c1csc(N)n1)C(=O)O	0.125 µg/mL (≈ 0.277 µM)	0.25 µg/mL (≈ 0.554 µM)	0.25 µg/mL (≈ 0.554 µM)	0.25 µg/mL (≈ 0.554 µM)	16 µg/mL (≈ 35.4 µM)		0.5 µg/mL (≈ 1.11 µM)	16 µg/mL (≈ 35.4 µM)	8 µg/mL (≈ 17.7 µM)	4 µg/mL (≈ 8.86 µM)	
